The source of these data is patent US9320276B2, “N-hetarylmethyl pyrazolylcarboxamides” (BAYER INTELLECTUAL PROPERTY GMBH, priority 2010, dated 2016).

The data set is described as follows: logP by HPLC on reversed-phase column (EEC Directive 79/831 Annex V.A8). Type of data set: physicochemical. To be noted: HPLC on reversed-phase column (C 18), 40° C., 0.1% aqueous formic acid and acetonitrile, linear gradient 10% to 90% acetonitrile. The protocol: In table 1, the logP values were determined in accordance with EEC Directive 79/831 Annex V.A8 by HPLC (High Performance Liquid Chromatography) on a reversed-phase column (C 18), using the method described below: Temperature: 40° C.; Mobile phases: 0.1% aqueous formic acid and acetonitrile; linear gradient from 10% acetonitrile to 90% acetonitrile. Calibration was carried out using unbranched alkan-2-ones (comprising 3 to 16 carbon atoms) with known logP values (determination of the logP values by the retention times using linear interpolation between two successive alkanones). lambda-max-values were determined using UV-spectra from 200 nm to 400 nm and the peak values of the chromatographic signals.

With `CN(Cc1ccco1)C(=O)c1c(C(F)F)nn(C)c1F` [Example 1], the logP was 1.87.
The result for `CC(C1CC1)N(Cc1ccco1)C(=O)c1c(C(F)F)nn(C)c1Cl` (stereo not drawn) [Example 2] reads 2.98; that for `CC(C1CC1)N(Cc1ccco1)C(=O)c1c(C(F)F)nn(C)c1F` (stereo not drawn) [Example 3], 2.82.
Regarding `Cn1nc(C(F)F)c(C(=O)N(Cc2ccco2)C2CC2)c1Cl` [Example 4], the logP worked out at 2.45.
In turn, `CN(Cc1ccco1)C(=O)c1c(C(F)F)nn(C)c1Cl` [Example 6] showed a logP of 2.02.
`Cn1nc(C(F)F)c(C(=O)N(Cc2ccco2)C2CCCCC2)c1Cl` [Example 7] displayed a logP of 3.35.
Under `Cn1nc(C(F)F)c(C(=O)N(Cc2ccco2)C2CCCCC2)c1F` [Example 8] stands 3.21; under `Cn1nc(C(F)F)c(C(=O)NCc2ccco2)c1Cl` [Example 9], 1.86.
The result for `Cn1nc(C(F)F)c(C(=O)NCc2ccco2)c1F` [Example 10] reads 1.66; that for `Cn1nc(C(F)F)c(C(=O)NC2(c3ccco3)CCCC2)c1Cl` [Example 11], 2.86; that for `Cn1nc(C(F)F)c(C(=O)NC2(c3ccco3)CCCC2)c1F` [Example 12], 2.70.
`Cn1nc(C(F)F)c(C(=O)N(Cc2cccnc2)CC(F)(F)F)c1Cl` [Example 13] had a logP of 1.37.
`Cn1nc(C(F)F)c(C(=O)N(Cc2cccnc2)CC(F)(F)F)c1F` [Example 14] gave a logP of 1.20.
As for `Cn1nc(C(F)F)c(C(=O)N(Cc2cccnc2)C2CCCCCC2)c1F` [Example 16], the logP stood at 1.66.
Under `Cn1nc(C(F)F)c(C(=O)NC2(c3cccnc3)CCCC2)c1Cl` [Example 17] stands 0.96.
Under `Cn1nc(C(F)F)c(C(=O)NC2(c3cccnc3)CCCC2)c1F` [Example 18] stands 0.84; under `CC(C)C(c1cncnc1)N(C)C(=O)c1c(C(F)F)nn(C)c1Cl` (stereo not drawn) [Example 19], 1.76.
The result for `CC(C)C(c1cncnc1)N(C)C(=O)c1c(C(F)F)nn(C)c1F` (stereo not drawn) [Example 20] reads 1.65.
In turn, `Cc1ccoc1CN(C)C(=O)c1c(C(F)F)nn(C)c1F` [Example 22] yielded a logP of 2.18.
Regarding `Cc1occc1C1(NC(=O)c2c(C(F)F)nn(C)c2F)CCCC1` [Example 24], the logP came out at 2.92.
The result for `Cn1ccc(C2(NC(=O)c3c(C(F)F)nn(C)c3Cl)CCCC2)n1` [Example 25] reads 1.93; that for `Cn1ccc(C2(NC(=O)c3c(C(F)F)nn(C)c3F)CCCC2)n1` [Example 26], 2.25; that for `CCN(Cc1nonc1C)C(=O)c1c(C(F)F)nn(C)c1Cl` [Example 27], 2.20.
The result for `CCCN(Cc1cccs1)C(=O)c1c(C(F)F)nn(C)c1Cl` [Example 29] reads 2.90; that for `CCCN(Cc1cccs1)C(=O)c1c(C(F)F)nn(C)c1F` [Example 30], 2.77.
Regarding `Cn1nc(C(F)F)c(C(=O)NC2(c3cccs3)CCCC2)c1Cl` [Example 33], the logP is recorded as 3.13.
With `Cc1cc(C(C)N(C(=O)c2c(C(F)F)nn(C)c2Cl)C2CC2)c(C)o1` (stereo not drawn) [Example 36], the logP was found to be 3.37.
On to `Cc1ccsc1CN(C(=O)c1c(C(F)F)nn(C)c1F)C1CCCC1` [Example 38], for which the logP was 3.46. The logP values of the last two compounds are within 0.2 log units of each other.
Under `Cc1ccsc1CN(C)C(=O)c1c(C(F)F)nn(C)c1Cl` [Example 41] stands 2.58.
Turning to `C=CCN(Cc1csc(C)n1)C(=O)c1c(C(F)F)nn(C)c1Cl` [Example 43], the logP was found to be 2.20.
The compound `C=CCN(Cc1csc(C)n1)C(=O)c1c(C(F)F)nn(C)c1F` [Example 44] returned a logP of 2.07.
In turn, `CCN(Cc1cn(CC)nc1C)C(=O)c1c(C(F)F)nn(C)c1F` [Example 45] returned a logP of 1.69.
Under `CCN(Cc1cn(CC)nc1C)C(=O)c1c(C(F)F)nn(C)c1Cl` [Example 46] stands 1.79.

The logP is a log measure of how a compound divides between an organic and an aqueous phase. Read a high logP as a more lipophilic compound.
